Experiments:
Type in all cases: binding
AAK1 (121-471) = AAK1 (121-471) (Homo sapiens, UniProt Q2M2I8); experiment: STD-NMR fragment screening, AAK1; conditions: for STD-NMR hit: 1 mM fragment, 20 µM protein, hit if peak in difference spectrum three times higher than local noise; for AAK1 (STD-NMR hit flag): 1 = hit, 0 = no hit
Experimental: (§1) All fragments were stored at −20°C as solids in argon flushed glass bottles. For NMR screening, fragments were weighed and dissolved in DMSO-d6 to a stock concentration of 300 mM. Mother plates were prepared with a 100 mM concentration. From these plates, daughter plates were prepared with the fragments mixed in the plates to a concentration of 50 mM for each fragment. Daughter plates were opened a maximum of eight times. The plates were argon flushed and sealed with a HT121TS (HTA) and Foil Heat Seal (Biozym).
(§2) For long time measurements, like the protein ^1H NMR spectrum, the buffer exchange was performed twice to reduce residual buffer peaks. All experiments were performed on a Bruker Avance III HDX 700 instrument, equipped with a 5 mm Prodigy TCI cryo-probehead. For every protein, a standard ^1H NMR experiment with 1 k scans and water suppression through presaturation was performed. […] The on-resonance frequency, which was determined from the ^1H NMR spectra of the protein, was between 0.5 and 0.6 ppm; 40 ppm was used as the off-resonance frequency. For an interleaved acquisition of the on- and off-resonance, a pseudo-2D scheme was applied. The saturation was done by Gaussian pulses with a length of 50 ms and 60 dB of attenuation, with an interpulse delay of 1 ms leading to an excitation bandwidth of about 42 Hz. The screening was done with 16 scans of on- and off-resonance scans each, with a 3 s saturation time. The samples contained final concentrations of 20 µM protein, 10% (^V/V) DMSO-d6, and 1 mM of each of the two fragments. A ^1H-NMR experiment was performed for each compound to act as a reference spectrum in the STD experiments. All NMR experiments were carried out at 25°C.
(§3) Fifteen of these compounds contain the same halogen twice. No compound bears mixtures of different halogen atoms. Four proteins (AAK1, CAMK1G, IDO1, and DOT1L) were screened against this HEFLib using STD-NMR. A fragment was considered a hit if the peak intensity in the difference spectrum was three times higher than the local background noise. […] Chemical compatibility and peak complementarity were assured for these mixtures. Samples containing more than two fragments were avoided to minimize the possible target competition and to decrease the risk of fragment interactions. […] The ^1H reference NMR spectrum of the mixture is shown in red for comparison. […] As fragment mixtures can lead to competitive effects between their fragments, it is not advised to use the quantification of peak mixtures for hit ranking.

CAMK1G (1-320) = target: T1, CAMK1G (1-320) (Homo sapiens, UniProt Q96NX5); experiment: STD-NMR fragment screening, CAMK1G; conditions: for CAMK1G (STD-NMR hit flag): 1 = hit, 0 = no hit
T1 construct: made in house; host or cells: E. coli BL21 (DE3) pLysS
T1 sequence (Q96NX5 1-320): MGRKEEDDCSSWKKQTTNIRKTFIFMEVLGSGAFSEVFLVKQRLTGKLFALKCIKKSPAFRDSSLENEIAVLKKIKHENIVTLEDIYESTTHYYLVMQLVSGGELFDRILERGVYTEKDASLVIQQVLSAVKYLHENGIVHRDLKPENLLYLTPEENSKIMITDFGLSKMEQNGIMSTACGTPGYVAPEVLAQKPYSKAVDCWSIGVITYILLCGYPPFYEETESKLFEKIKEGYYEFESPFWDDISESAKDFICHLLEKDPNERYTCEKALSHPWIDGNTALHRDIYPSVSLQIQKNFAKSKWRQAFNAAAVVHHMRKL
Experimental: as §1, §2, §3

IDO1 (1-435) = target: T2, IDO1 (1-435) (Homo sapiens, UniProt P14902); experiment: STD-NMR fragment screening, IDO1; conditions: for IDO1 (STD-NMR hit flag): 1 = hit, 0 = no hit
T2 construct: His-tag of pET15b with TEV site (thrombin site replaced) (cleaved yes); made in house; host or cells: E. coli Rosetta 2 (DE3) pLysS
T2 sequence (P14902 whole entry, the tested form may be a part): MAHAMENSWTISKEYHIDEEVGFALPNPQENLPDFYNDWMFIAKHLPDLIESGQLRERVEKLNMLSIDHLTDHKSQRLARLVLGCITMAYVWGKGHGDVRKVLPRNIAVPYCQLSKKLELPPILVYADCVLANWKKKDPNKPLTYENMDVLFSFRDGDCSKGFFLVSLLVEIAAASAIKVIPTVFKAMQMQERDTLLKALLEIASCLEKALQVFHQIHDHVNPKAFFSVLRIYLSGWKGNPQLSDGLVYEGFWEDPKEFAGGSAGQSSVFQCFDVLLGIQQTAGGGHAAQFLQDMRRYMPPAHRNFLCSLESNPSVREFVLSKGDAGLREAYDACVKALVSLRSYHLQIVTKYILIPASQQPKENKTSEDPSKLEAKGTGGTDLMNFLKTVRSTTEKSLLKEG
Experimental: as §1, §2, §3

DOT1L (1-416) = target: T3, DOT1L (1-416) (Homo sapiens, UniProt Q8TEK3); experiment: STD-NMR fragment screening, DOT1L; conditions: for DOT1L (STD-NMR hit flag): 1 = hit, 0 = no hit
T3 construct: made in house; host or cells: E. coli BL21 (DE3) pLysS
T3 sequence (Q8TEK3 1-416): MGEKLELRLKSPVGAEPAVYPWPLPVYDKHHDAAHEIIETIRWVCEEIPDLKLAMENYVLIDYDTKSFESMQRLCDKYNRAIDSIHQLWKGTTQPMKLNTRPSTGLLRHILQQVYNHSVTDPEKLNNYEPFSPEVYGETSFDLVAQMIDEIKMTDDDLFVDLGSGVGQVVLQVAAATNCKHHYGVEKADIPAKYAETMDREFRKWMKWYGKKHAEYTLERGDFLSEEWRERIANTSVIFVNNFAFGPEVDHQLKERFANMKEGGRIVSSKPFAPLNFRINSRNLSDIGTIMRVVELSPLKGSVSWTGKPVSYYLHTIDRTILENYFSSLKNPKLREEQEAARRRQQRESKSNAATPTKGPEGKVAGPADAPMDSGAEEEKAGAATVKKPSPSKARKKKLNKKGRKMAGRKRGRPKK
Experimental: as §1, §2, §3

[1] = 1 mM fragment, 20 µM protein, hit if peak in difference spectrum three times higher than local noise

Chain of AAK1 (121-471) (Q2M2I8 46-315 limits assumed): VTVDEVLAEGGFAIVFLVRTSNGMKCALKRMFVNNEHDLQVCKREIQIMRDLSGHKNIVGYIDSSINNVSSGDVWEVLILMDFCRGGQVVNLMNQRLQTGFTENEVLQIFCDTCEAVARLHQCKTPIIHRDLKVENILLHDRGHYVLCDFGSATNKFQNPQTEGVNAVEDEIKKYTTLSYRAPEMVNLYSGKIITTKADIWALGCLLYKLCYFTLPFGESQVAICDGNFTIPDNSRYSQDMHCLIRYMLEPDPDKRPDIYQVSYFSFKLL

| STD-NMR hit (CAMK1G (1-320); [1]) | STD-NMR hit (IDO1 (1-435); [1]) | STD-NMR hit (DOT1L (1-416); [1]) | AAK1 (STD-NMR hit flag) (AAK1 (121-471)) | CAMK1G (STD-NMR hit flag) (CAMK1G (1-320)) | IDO1 (STD-NMR hit flag) (IDO1 (1-435)) | DOT1L (STD-NMR hit flag) (DOT1L (1-416)) | SMILES | STD-NMR hit (AAK1 (121-471)) |
| --- | --- | --- | --- | --- | --- | --- | --- | --- |
| pan-target hit | pan-target hit | pan-target hit |  |  |  |  | Cn1c(Cl)c(C#N)c(=O)n(C)c1=O [Fragment 1234] | pan-target hit |
|  |  |  |  |  |  |  | Oc1ccc(Cl)cc1 [Fragment 4485] | none of the signals of fragment 4485 (Signal 4 and 5) are distinguishable from the baseline noise |
|  |  |  | 0 | 0 | 0 | 0 | NC(CCO)c1ccc(Cl)cc1Cl (stereo not drawn) [Fragment B02289594] |  |
|  |  |  | 1 | 1 | 0 | 0 | Clc1ncnc2cc[nH]c12 [Fragment B02289595] |  |
|  |  |  | 0 | 1 | 0 | 0 | Cc1noc(C)c1Br [Fragment B02289596] |  |
|  |  |  | 0 | 0 | 0 | 0 | O=C(O)c1cccc(Cl)n1 [Fragment B02289597] |  |
|  |  |  | 0 | 0 | 0 | 0 | OB(O)c1ccc(Cl)nc1F [Fragment B02289599] |  |
|  |  |  | 0 | 1 | 0 | 0 | Nc1ncccc1I [Fragment B02289600] |  |
|  |  |  | 1 | 0 | 1 | 0 | O=[N+]([O-])c1cnc(Br)[nH]1 [Fragment B02289601] |  |
|  |  |  | 0 | 0 | 0 | 0 | O=C(O)c1ccc(Cl)cn1 [Fragment B02289602] |  |
|  |  |  | 0 | 0 | 0 | 0 | Nc1cccc(Br)c1O [Fragment B02289603] |  |
|  |  |  | 1 | 0 | 0 | 0 | O=C(O)c1cncc(Cl)c1 [Fragment B02289604] |  |
|  |  |  | 0 | 1 | 0 | 0 | Nc1ccc2[nH]nc(Br)c2c1 [Fragment B02289605] |  |
|  |  |  | 0 | 0 | 0 | 0 | OCc1ccc(Cl)nc1 [Fragment B02289606] |  |
|  |  |  | 1 | 0 | 0 | 0 | Nc1cnccc1I [Fragment B02289607] |  |
|  |  |  | 1 | 1 | 0 | 0 | COc1nc(N)ncc1I [Fragment B02289608] |  |
|  |  |  | 0 | 0 | 0 | 0 | NCc1cc(Br)no1 [Fragment B02289609] |  |
|  |  |  | 1 | 1 | 0 | 0 | Brc1cnn2cccnc12 [Fragment B02289610] |  |
|  |  |  | 0 | 0 | 0 | 0 | O=C(O)c1cncc(Cl)n1 [Fragment B02289611] |  |
|  |  |  | 0 | 0 | 1 | 0 | Nc1ncc(Br)cc1C(=O)O [Fragment B02289612] |  |
|  |  |  | 0 | 0 | 0 | 0 | CCOC(=O)c1coc(Cl)n1 [Fragment B02289613] |  |

| STD-NMR hit (CAMK1G (1-320); [1]) | STD-NMR hit (IDO1 (1-435); [1]) | STD-NMR hit (DOT1L (1-416); [1]) | AAK1 (STD-NMR hit flag) (AAK1 (121-471)) | CAMK1G (STD-NMR hit flag) (CAMK1G (1-320)) | IDO1 (STD-NMR hit flag) (IDO1 (1-435)) | DOT1L (STD-NMR hit flag) (DOT1L (1-416)) | SMILES | STD-NMR hit (AAK1 (121-471)) |
| --- | --- | --- | --- | --- | --- | --- | --- | --- |
|  |  |  | 0 | 0 | 0 | 0 | O=C(O)c1ncccc1Br [Fragment B02289614] |  |
|  |  |  | 0 | 0 | 0 | 0 | O=C(O)c1ccc(Cl)c(O)c1 [Fragment B02289615] |  |
|  |  |  | 1 | 0 | 0 | 0 | Cc1ccc(N)c(Cl)n1 [Fragment B02289616] |  |
|  |  |  | 0 | 1 | 0 | 0 | Brc1cnc2cnccn12 [Fragment B02289617] |  |
|  |  |  | 0 | 0 | 0 | 0 | O=c1[nH]cnc(O)c1Br [Fragment B02289618] |  |
|  |  |  | 0 | 1 | 0 | 0 | Cc1ncccc1Br [Fragment B02289619] |  |
|  |  |  | 0 | 0 | 1 | 0 | Cn1ccc(Br)n1 [Fragment B02289620] |  |
|  |  |  | 1 | 1 | 0 | 0 | Nc1ncnc(Cl)c1Cl [Fragment B02289621] |  |
|  |  |  | 0 | 0 | 0 | 0 | Brc1cncnc1 [Fragment B02289809] |  |
|  |  |  | 0 | 1 | 0 | 0 | Brc1cnc(N2CCCNCC2)nc1 [Fragment B02290087] |  |
|  |  |  | 0 | 0 | 0 | 0 | COc1ccc(CN)c(Cl)c1 [Fragment B02290088] |  |
|  |  |  | 0 | 0 | 0 | 0 | CN(N)c1ncc(C(F)(F)F)cc1Cl [Fragment B02290089] |  |
|  |  |  | 0 | 0 | 0 | 0 | NCc1cc(Cl)cc(Cl)c1N [Fragment B02290090] |  |
|  |  |  | 0 | 0 | 0 | 0 | COc1ccc(I)cc1CNCCO [Fragment B02290112] |  |
|  |  |  | 1 | 0 | 1 | 0 | Brc1cnn(-c2nnn[nH]2)c1 [Fragment B02290113] |  |
|  |  |  | 0 | 0 | 0 | 0 | CC(C(=O)O)n1cc(Br)cn1 (stereo not drawn) [Fragment B02290114] |  |
|  |  |  | 0 | 1 | 0 | 0 | O=C(c1cc(Br)c[nH]1)N1CCOCC1 [Fragment B02290115] |  |
|  |  |  | 0 | 0 | 1 | 0 | Cn1ncc(Br)c1C(=O)O [Fragment B02290116] |  |
|  |  |  | 0 | 0 | 0 | 0 | NCCCn1cc(Cl)cn1 [Fragment B02290117] |  |
|  |  |  | 0 | 0 | 0 | 0 | NC(=O)c1nc(Cl)n[nH]1 [Fragment B02290118] |  |
|  |  |  | 0 | 0 | 0 | 0 | O=C(O)CCc1nc(Br)n[nH]1 [Fragment B02290119] |  |
